This note sets out measurements from patent US10052320B2, “Substituted quinoxalines as FGFR kinase inhibitors” (ASTEX THERAPEUTICS LIMITED, priority 2011, dated 2018).

Usually melting point stands for the temperature, or range, at which the solid turns liquid.

Bounds are passed on as bounds.

The target in data set [1] is Ba/F3-FGFR1-transfected cells (Homo sapiens, UniProt P11362). Put plainly: Ba/F3-FGFR1 (minus IL3) cellular proliferation assay, Alamar Blue. Type of data set: cell-based. The note with it: for BAF3-FGFR 1 (MIN IL3) 384 well pIC50: minus IL3, 384 well. The method, then:
Ba/F3-FGFR1 (Minus IL3 or Plus IL3) (Cellular Proliferation Assay)
Cells were put in an incubator at 37° C. and 5% CO2. After 24 hours, 10 μl of Alamar Blue solution (0.5 mM K3Fe(CN)6, 0.5 mM KaFe(CN)6, 0.15 mM Resazurin and 100 mM Phosphate Buffer) was added to the wells, incubated for 4 hours at 37° C. and 5% CO2 before RFU's (Relative Fluorescence Units) (ex. 540 nm., em. 590 nm.) were measured in a flurorescence plate reader. […]
In a 96 well plate, 180 μl cell culture medium (phenol red free RPMI-1640, 10% FBS, 2 mM L-Glutamine and 50 μg/ml Gentamycin) containing 10000 cells per well of Ba/F3-FGFR1-transfected cells were pipette and 20 μl of compound dilution in DMSO was added. Cells were put in an incubator at 37° C. and 5% CO2. After 24 hours, 40 μl of Alamar Blue solution (0.5 mM K3Fe(CN)6, 0.5 mM KaFe(CN)6, 0.15 mM Resazurin and 100 mM Phosphate Buffer) was added to the wells, incubated for 4 hours at 37° C. and 5% CO2 before RFU's (Relative Fluorescence Units) (ex. 540 nm., em. 590 nm.) were measured in a flurorescence plate reader.
In general terms: Alamar Blue is a resazurin reagent that responds to reducing activity.

The target of another data set is FGFR1 (h) (Homo sapiens, UniProt P11362). Nature of the data set: FGFR1 (enzymatic assay), TR-FRET. The settings on record: read-out: FGFR 1 pIC50 (converted). Format: biochemical. The procedure:
In a final reaction volume of 30 μL, FGFR1 (h) (25 ng/ml) was incubated with 50 mM HEPES pH 7.5, 6 mM MnCl2, 1 mM DTT, 0.1 mM Na3VO4, 0.01% Triton-X-100, 500 nM Btn-Flt3 and 5 μM ATP in the presence of compound (1% DMSO final). […] Time-Resolved Fluorescence Resonance Energy Transfer (TR-FRET) signal (ex340 nm. Em 620 nm, em 655 nm) was measured afterwards and results are expressed in RFU (Relative Fluorescence Units).
(In general: Time-resolved FRET reads energy transfer from a long-lived donor to a nearby acceptor.)

Data set [2] has as its target T1, Ba/F3-Flt3-transfected cells (Homo sapiens, UniProt P36888, cells depend on it, form not given).
T1 sequence (P36888 1-993): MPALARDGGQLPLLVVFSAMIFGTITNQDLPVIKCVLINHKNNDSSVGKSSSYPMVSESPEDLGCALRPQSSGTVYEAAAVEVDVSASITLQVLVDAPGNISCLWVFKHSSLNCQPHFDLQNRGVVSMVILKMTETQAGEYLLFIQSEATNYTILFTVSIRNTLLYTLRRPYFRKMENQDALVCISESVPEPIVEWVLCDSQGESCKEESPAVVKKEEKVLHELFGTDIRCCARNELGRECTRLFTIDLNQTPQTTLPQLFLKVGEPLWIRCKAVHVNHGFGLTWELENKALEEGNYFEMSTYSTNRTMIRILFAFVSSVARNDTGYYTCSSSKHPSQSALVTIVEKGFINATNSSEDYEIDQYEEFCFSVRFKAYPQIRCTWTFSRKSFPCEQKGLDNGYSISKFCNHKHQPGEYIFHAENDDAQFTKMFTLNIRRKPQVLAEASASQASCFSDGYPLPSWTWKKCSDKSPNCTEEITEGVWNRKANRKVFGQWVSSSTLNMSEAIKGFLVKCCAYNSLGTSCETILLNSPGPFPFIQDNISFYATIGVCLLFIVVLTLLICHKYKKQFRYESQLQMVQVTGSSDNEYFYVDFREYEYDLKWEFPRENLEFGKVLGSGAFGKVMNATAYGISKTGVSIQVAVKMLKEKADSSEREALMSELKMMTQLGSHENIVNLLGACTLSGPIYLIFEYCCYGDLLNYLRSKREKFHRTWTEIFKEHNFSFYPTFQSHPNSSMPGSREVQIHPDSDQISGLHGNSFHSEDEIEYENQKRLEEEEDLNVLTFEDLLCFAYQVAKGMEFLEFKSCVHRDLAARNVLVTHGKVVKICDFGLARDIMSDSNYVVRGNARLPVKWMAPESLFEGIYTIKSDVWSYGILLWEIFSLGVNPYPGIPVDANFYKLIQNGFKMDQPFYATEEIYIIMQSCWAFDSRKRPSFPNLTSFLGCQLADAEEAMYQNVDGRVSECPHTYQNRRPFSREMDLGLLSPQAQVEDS
Nature of the data set: Ba/F3-Flt3 (minus IL3) cellular proliferation assay, Alamar Blue. Type of data set: cell-based.

For another data set, the target named is FGFR4 (h) (Homo sapiens, UniProt P22455). Put plainly: FGFR4 (enzymatic assay), TR-FRET. Type of data set: biochemical. The settings on record: read-out: FGFR 4 pIC50 (converted). The method, then: In a final reaction volume of 30 μL, FGFR4 (h) (60 ng/ml) was incubated with 50 mM HEPES pH 7.5, 6 mM MnCl2, 1 mM DTT, 0.1 mM Na3VO4, 0.01% Triton-X-100, 500 nM Btn-Flt3 and 5 μM ATP in the presence of compound (1% DMSO final). […] Time-Resolved Fluorescence Resonance Energy Transfer (TR-FRET) signal (ex340 nm. Em 620 nm, em 655 nm) was measured afterwards and results are expressed in RFU (Relative Fluorescence Units).
Sequence of FGFR4 (h) (P22455 22-802): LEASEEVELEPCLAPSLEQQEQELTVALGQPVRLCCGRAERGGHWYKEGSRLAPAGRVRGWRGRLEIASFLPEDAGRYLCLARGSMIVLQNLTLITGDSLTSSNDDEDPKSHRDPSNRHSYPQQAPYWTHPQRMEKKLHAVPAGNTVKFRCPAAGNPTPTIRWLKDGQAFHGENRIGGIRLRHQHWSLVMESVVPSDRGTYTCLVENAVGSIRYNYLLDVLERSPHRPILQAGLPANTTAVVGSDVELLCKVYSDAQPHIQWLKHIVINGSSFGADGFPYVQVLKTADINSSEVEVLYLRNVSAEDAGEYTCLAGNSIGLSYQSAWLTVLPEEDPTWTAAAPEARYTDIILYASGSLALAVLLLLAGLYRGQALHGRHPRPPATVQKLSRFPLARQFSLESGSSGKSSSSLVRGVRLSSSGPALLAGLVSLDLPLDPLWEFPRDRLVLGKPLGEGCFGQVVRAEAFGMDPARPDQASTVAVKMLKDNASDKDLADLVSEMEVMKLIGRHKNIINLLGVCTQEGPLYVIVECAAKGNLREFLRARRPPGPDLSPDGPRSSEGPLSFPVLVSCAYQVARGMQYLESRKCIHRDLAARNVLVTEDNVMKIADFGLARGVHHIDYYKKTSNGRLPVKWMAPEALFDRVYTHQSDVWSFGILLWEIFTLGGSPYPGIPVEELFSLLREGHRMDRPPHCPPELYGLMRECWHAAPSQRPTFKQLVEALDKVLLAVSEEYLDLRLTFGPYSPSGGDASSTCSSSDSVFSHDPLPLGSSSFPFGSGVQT

Sequence of Ba/F3-FGFR1-transfected cells (P11362 whole entry, change not shown): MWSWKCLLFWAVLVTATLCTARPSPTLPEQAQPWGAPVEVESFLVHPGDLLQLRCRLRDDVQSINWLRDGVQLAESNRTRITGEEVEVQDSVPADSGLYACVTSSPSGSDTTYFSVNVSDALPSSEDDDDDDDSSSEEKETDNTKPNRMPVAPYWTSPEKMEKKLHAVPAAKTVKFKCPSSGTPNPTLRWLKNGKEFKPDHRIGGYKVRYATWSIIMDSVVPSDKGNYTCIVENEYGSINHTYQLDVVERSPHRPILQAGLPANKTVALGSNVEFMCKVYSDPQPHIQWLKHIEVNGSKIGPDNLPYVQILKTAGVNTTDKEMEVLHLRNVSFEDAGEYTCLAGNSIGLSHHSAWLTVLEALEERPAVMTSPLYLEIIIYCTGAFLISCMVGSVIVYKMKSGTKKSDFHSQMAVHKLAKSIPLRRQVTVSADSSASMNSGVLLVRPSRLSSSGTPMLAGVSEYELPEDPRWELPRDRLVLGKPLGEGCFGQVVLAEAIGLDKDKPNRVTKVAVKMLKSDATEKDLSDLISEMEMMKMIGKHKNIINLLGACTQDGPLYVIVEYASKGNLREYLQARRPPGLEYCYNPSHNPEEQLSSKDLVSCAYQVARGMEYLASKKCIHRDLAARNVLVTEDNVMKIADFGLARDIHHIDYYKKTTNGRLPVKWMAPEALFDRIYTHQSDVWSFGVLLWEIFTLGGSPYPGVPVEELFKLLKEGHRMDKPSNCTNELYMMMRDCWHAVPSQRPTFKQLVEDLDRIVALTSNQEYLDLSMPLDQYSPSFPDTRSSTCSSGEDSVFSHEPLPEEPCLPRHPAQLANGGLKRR
Sequence of FGFR1 (h) (P11362 22-822): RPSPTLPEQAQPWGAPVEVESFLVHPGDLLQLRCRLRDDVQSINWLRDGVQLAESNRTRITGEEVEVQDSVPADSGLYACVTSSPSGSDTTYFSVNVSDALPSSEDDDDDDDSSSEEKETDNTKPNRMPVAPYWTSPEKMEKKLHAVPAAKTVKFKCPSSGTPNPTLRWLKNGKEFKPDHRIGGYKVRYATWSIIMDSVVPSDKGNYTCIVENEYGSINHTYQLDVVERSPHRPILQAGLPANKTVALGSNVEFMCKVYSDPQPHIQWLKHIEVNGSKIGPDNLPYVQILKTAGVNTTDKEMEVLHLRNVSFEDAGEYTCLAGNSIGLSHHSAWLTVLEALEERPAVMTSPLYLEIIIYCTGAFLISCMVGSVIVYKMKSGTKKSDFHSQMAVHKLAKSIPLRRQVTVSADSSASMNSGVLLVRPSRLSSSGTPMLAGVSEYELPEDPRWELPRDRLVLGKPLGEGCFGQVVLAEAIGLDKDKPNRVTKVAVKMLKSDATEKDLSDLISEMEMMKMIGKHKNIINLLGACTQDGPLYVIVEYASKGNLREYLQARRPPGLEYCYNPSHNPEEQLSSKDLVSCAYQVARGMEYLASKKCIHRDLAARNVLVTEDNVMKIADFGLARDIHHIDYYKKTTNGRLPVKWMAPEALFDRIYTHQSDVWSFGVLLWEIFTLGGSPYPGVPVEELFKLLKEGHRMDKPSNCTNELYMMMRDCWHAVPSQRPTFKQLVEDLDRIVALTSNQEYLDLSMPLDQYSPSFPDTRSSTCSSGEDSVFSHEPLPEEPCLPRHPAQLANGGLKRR

The compound `COc1cc(OC)cc(N(CCO)c2ccc3ncc(-c4ccc(N5CCNCC5)nc4)nc3c2)c1` [Compound 165] showed a melting point of 171 °C. Also, in data set [1], the “BAF3-FGFR 1 (MIN IL3) 384 well pIC50” value turned out to be 6.56. Besides, at FGFR1 (h), the IC50 was 3.89 nM. The “BAF3-FLT3 (MIN IL3) 384 well pIC50” value in data set [2] (minus IL3) is 5.38. Besides, the IC50 at FGFR4 (h) was 28.8 nM.

The compound `COc1cc(OC)cc(N(CCN2CCN(C(C)=O)CC2)c2ccc3ncc(-c4ccc(N)nc4)nc3c2)c1` [Compound 68] came in with a melting point of 167 °C. In data set [1], the “BAF3-FGFR 1 (MIN IL3) 384 well pIC50” value came out at 6.13. For the same compound, the IC50 at FGFR1 (h) is 25.7 nM. Moreover, the “BAF3-FLT3 (MIN IL3) 384 well pIC50” value in data set [2] (minus IL3) is reported as under 5. Besides, at FGFR4 (h), the IC50 was 282 nM.

In turn, `COc1cc(OC)cc(N(CC2CC2)c2ccc3ncc(-c4c[nH]cn4)nc3c2)c1` [Compound 39] yielded a melting point of 166 °C. In addition, the “BAF3-FGFR 1 (MIN IL3) 384 well pIC50” value in data set [1] is recorded as under 5. The IC50 on FGFR1 (h) is 31.6 nM. Further, in data set [2] (minus IL3), the “BAF3-FLT3 (MIN IL3) 96 well pIC50” value was under 5 and the “BAF3-FLT3 (MIN IL3) 384 well pIC50” value was under 5. On FGFR4 (h), the IC50 was 145 nM.

On to `COc1cc(OC)cc(N(CCCO)c2ccc3ncc(-c4ccnc(-c5ccnc(Cl)c5)c4)nc3c2)c1` [Compound 133], for which the melting point amounted to 172 °C. Further, the “BAF3-FGFR 1 (MIN IL3) 384 well pIC50” value in data set [1] was under 5. Also, on FGFR1 (h), the IC50 was 110 nM. The “BAF3-FLT3 (MIN IL3) 384 well pIC50” value in data set [2] (minus IL3) is under 5. For the same compound, the IC50 at FGFR4 (h) was over 1000 nM.

`COc1cc(OC)cc(N(CC2CC2)c2ccc3ncc(-c4cccc(N5CCOCC5)c4)nc3c2)c1` [Compound 92]: the melting point was determined as 155 °C. For the same compound, the “BAF3-FGFR 1 (MIN IL3) 96 well pIC50” value in data set [1] (minus IL3, 96 well) is reported as under 5. For the same compound, the “BAF3-FGFR 1 (MIN IL3) 384 well pIC50” value in data set [1] is recorded as under 5. In addition, the IC50 at FGFR1 (h) was 363 nM. In data set [2] (minus IL3), the “BAF3-FLT3 (MIN IL3) 96 well pIC50” value is under 5 and the “BAF3-FLT3 (MIN IL3) 384 well pIC50” value was under 5. In addition, the IC50 at FGFR4 (h) was 2400 nM.

As to `COc1cc(OC)cc(N(CC2CC2)c2ccc3ncc(-c4ccc5[nH]ccc5c4)nc3c2)c1` [Compound 86], the melting point amounted to 181 °C. In data set [1], the “BAF3-FGFR 1 (MIN IL3) 384 well pIC50” value is on record as under 5. In addition, the IC50 on FGFR1 (h) was 513 nM. Further, the “BAF3-FLT3 (MIN IL3) 96 well pIC50” value in data set [2] (minus IL3, 96 well) was under 5. The “BAF3-FLT3 (MIN IL3) 384 well pIC50” value in data set [2] (minus IL3, 384 well) is listed as under 5. Besides, the IC50 at FGFR4 (h) is 3980 nM.

`COc1cc(OC)cc(N(CCCNCC(F)(F)F)c2ccc3ncc(-c4ccnc(F)c4)nc3c2)c1` [Compound 144] returned a melting point of 128 °C. For the same compound, in data set [1], the “BAF3-FGFR 1 (MIN IL3) 384 well pIC50” value is reported as under 5. Besides, the IC50 on FGFR1 (h) was 74.1 nM. In addition, the “BAF3-FLT3 (MIN IL3) 384 well pIC50” value in data set [2] (minus IL3) is under 5. Further, the IC50 on FGFR4 (h) is 468 nM.

Compound `COc1cc(OC)cc(N(CCCO)c2ccc3ncc(-c4cnc(N5CCN(C)CC5)c(C)c4)nc3c2)c1` [Compound 135] displayed a melting point of 179 °C. Besides, in data set [1], the “BAF3-FGFR 1 (MIN IL3) 384 well pIC50” value amounted to 6.42. Also, the IC50 on FGFR1 (h) was 2 nM. The “BAF3-FLT3 (MIN IL3) 384 well pIC50” value in data set [2] (minus IL3) worked out at 5.43. Moreover, the IC50 at FGFR4 (h) is 28.8 nM.

Take `COCC(O)CN(c1cc(OC)cc(OC)c1)c1ccc2ncc(-c3cccnc3)nc2c1` (single isomer, unassigned) [Compound 46]: the melting point was 154 °C. Also, in data set [1], the “BAF3-FGFR 1 (MIN IL3) 384 well pIC50” value is 6.49. Besides, the IC50 at FGFR1 (h) is 12.6 nM. In addition, in data set [2] (minus IL3), the “BAF3-FLT3 (MIN IL3) 384 well pIC50” value is recorded as under 5. In addition, on FGFR4 (h), the IC50 was 47.9 nM.

In turn, `COc1cc(OC)cc(N(CCO)c2ccc3ncc(-c4ccc(N5CCN(C)CC5)nc4)nc3c2)c1` [Compound 163] yielded a melting point of 160 °C. Further, the “BAF3-FGFR 1 (MIN IL3) 384 well pIC50” value in data set [1] came out at 6.15. The IC50 at FGFR1 (h) was 7.41 nM. Also, in data set [2] (minus IL3), the “BAF3-FLT3 (MIN IL3) 384 well pIC50” value is on record as 5.32. Besides, at FGFR4 (h), the IC50 is 120 nM.

Regarding `COc1cc(OC)cc(N(CCCNC(C)C)c2ccc3ncc(-c4ccnc(NC(=O)NC(C)C)c4)nc3c2)c1` [Compound 131], the melting point was found to be 155 °C. Also, in data set [1], the “BAF3-FGFR 1 (MIN IL3) 384 well pIC50” value is 6.44. Besides, the IC50 on FGFR1 (h) was 2.09 nM. Also, in data set [2] (minus IL3), the “BAF3-FLT3 (MIN IL3) 384 well pIC50” value amounted to 5.5. Besides, the IC50 at FGFR4 (h) was 21.4 nM.
